The target in the first assay is T1, GST-tagged truncated human mutant G2019S LRRK2 (Homo sapiens, UniProt Q5S007, G2019S).
T1 construct: GST-tagged truncated human mutant G2019S LRRK2; purchased Life Technologies Corporation (Carlsbad, CA)
T1 sequence (Q5S007 970-2527 G2019S limits assumed): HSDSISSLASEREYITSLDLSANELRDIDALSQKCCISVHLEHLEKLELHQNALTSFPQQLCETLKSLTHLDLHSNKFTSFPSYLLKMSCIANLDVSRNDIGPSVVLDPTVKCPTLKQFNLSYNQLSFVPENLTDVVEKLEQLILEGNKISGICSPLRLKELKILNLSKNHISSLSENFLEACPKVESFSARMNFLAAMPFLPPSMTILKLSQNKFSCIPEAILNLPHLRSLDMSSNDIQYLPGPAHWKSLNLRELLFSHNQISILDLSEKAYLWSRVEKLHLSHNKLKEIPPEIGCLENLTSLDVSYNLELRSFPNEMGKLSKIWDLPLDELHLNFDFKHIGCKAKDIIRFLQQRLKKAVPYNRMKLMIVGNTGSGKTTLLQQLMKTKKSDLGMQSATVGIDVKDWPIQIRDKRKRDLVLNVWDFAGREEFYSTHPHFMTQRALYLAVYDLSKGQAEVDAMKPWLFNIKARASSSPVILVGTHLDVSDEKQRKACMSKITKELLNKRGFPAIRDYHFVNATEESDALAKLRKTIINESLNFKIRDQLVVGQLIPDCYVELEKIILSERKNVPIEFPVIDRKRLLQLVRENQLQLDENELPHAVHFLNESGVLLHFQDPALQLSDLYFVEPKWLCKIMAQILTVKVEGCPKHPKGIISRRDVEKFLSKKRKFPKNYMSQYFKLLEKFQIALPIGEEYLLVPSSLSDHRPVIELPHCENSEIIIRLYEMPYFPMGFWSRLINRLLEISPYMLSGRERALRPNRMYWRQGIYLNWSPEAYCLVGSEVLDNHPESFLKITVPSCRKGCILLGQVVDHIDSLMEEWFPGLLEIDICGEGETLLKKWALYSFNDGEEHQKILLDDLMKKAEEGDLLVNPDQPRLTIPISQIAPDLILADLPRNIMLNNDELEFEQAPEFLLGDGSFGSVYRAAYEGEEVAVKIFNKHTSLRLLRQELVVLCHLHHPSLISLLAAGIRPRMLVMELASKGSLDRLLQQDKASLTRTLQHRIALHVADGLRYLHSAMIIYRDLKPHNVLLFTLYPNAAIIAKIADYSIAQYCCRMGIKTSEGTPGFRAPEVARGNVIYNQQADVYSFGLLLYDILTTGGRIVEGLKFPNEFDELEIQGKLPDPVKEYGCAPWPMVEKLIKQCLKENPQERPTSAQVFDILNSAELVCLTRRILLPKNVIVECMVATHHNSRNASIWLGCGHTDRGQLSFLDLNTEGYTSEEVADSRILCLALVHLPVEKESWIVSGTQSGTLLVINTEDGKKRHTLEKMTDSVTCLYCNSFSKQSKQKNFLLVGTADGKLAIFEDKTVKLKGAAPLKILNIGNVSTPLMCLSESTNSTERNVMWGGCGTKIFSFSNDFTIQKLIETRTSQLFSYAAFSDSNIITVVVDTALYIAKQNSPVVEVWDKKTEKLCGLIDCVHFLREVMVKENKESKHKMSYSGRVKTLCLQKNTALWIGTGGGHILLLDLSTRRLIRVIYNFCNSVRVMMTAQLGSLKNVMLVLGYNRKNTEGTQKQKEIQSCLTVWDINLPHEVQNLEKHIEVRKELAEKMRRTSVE
Put plainly: LRRK2 G2019S Km ATP LanthaScreen assay. Type of assay: biochemical. The conditions noted are these: 134 μM ATP (Km ATP), LRRKtide substrate, mean of several tests. In outline:
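IC50 values are means of repeat runs, fitted with a 4-parameter logistic to the 520/495 nm TR-FRET ratio from a Tb-labeled anti-phospho-LRRKtide antibody added with EDTA. Reactions ran 90 min at room temperature at Km ATP (134 μM) with fluorescein-LRRKtide, after 15-min compound preincubation with truncated GST-tagged G2019S LRRK2.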
Background: Time-resolved FRET reads energy transfer from a long-lived donor to a nearby acceptor.
As for `O=C(Nc1cc2cc(N3CCC(N4CC(F)C4)CC3)c(Cl)cc2cn1)C1CC12CCOCC2` (stereo not shown) [Ex-4.6], the “LRRK2 pIC50” value is given as 8.61. Turning to `CC1(C#N)CCN(c2cc3cc(NC(=O)C4CC45CCOCC5)ncc3cc2Cl)CC1` (stereo not shown) [Ex-4.8], the “LRRK2 pIC50” value is given as 6.68. The same measure, in the same setting: in the case of `O=C(Nc1cc2cc(N3CCC(N4CC(F)(F)C4)CC3)c(Cl)cc2cn1)C1CC12CCOCC2` (stereo not shown) [Ex-4.7] it was 7.93.

Still in this assay, the particulars now being: 134 μM ATP (Km ATP), LRRKtide substrate, mean of several tests, read-out: LRRK2 pIC50 (converted).
Regarding `CC1(N2CCN(c3cc4cc(NC(=O)C5CC56CCOCC6)ncc4cc3Cl)CC2)COCC1O` (single isomer, unassigned) [Ex-2.1, (R or S)-N-(7-chloro-6-(4-((3R,4R or 3S,4S)-4-hydroxy-3-methyltetrahydrofuran-3-yl)piperazin-1-yl)isoquinolin-3-yl)-6-oxaspiro[2.5]octane-1-carboxamide], the IC50 was 0.389 nM. As for `CC1(N2CCN(c3cc4cc(NC(=O)C5CC56CCOC6)ncc4cc3Cl)CC2)COCC1O` (single isomer, unassigned) [Ex-2.10, (1R,3R or 1S,3S)-N-(7-chloro-6-(4-((3R,4R or 3S,4S)-4-hydroxy-3-methyltetrahydrofuran-3-yl)piperazin-1-yl)isoquinolin-3-yl)-5-oxaspiro[2.4]heptane-1-carboxamide], the IC50 was 0.589 nM. The same measure, in the same setting: next, `CC1(N2CCN(c3cc4cc(NC(=O)C5CC56CCC(F)(F)CC6)ncc4cc3Cl)CC2)COCC1O` (single isomer, unassigned) [Ex-1.20, (1R or 1S)-N-(7-chloro-6-(4-((3R,4R or 3S,4S)-4-hydroxy-3-methyltetrahydrofuran-3-yl)piperazin-1-yl)isoquinolin-3-yl)-6,6-difluorospiro[2.5]octane-1-carboxamide]: 63.1 nM. Regarding `COC1COCC1N1CCN(c2cc3cc(NC(=O)C4CC45CCOCC5)ncc3cc2Cl)CC1` (single isomer, unassigned) [Ex-5.10], the IC50 was 38 nM. The same measure, in the same setting: next, `CC1(C2CCOC2)CC1C(=O)Nc1cc2cc(N3CCN(C4(C)COCC4O)CC3)c(Cl)cc2cn1` (single isomer, unassigned) [Ex-10.86, (1R,2R or 1S,2S, or 1R,2S, or 1S,2R)-N-[7-chloro-6-[4-((3R,4R or 3S,4S)-4-hydroxy-3-methyl-tetrahydrofuran-3-yl)piperazin-1-yl]-3-isoquinolyl]-2-methyl-2-tetrahydrofuran-3-yl-cyclopropanecarboxamide]: 0.0813 nM; `C[C@]1(O)COC[C@@]1(C)N1CCN(c2cc3cc(NC(=O)[C@@H]4CC45CCOCC5)ncc3cc2Cl)CC1` (single isomer, unassigned) [Ex-17.2, (R) or (S)-N-(7-chloro-6-((3R,4R) or (3S,4S)-4-(4-hydroxy-3,4-dimethyltetrahydrofuran-3-yl)piperazin-1-yl)isoquinolin-3-yl)-6-oxaspiro[2.5]octane-1-carboxamide]: 0.126 nM. The same measure, in the same setting: in the case of `CC(C)(O)C1CC1C(=O)Nc1cc2cc(N3CCN(C4(C)COCC4O)CC3)c(Cl)cc2cn1` (single isomer, unassigned) [Ex-10.5] it was 4.79 nM. Regarding `CC1(C2CCOC2)CC1C(=O)Nc1cc2cc(N3CCN(C4(C)COCC4O)CC3)c(Cl)cc2cn1` (single isomer, unassigned) [Ex-10.88, (1R,2R or 1S,2S, or 1R,2S, or 1S,2R)-N-[7-chloro-6-[4-((3R,4R or 3S,4S)-4-hydroxy-3-methyl-tetrahydrofuran-3-yl)piperazin-1-yl]-3-isoquinolyl]-2-methyl-2-tetrahydrofuran-3-yl-cyclopropanecarboxamide], the IC50 is 0.182 nM.

For the compound `CC1C(C(=O)Nc2cc3cc(N4CCN(C5(C)CCOC5)CC4)c(Cl)cc3cn2)C1c1cnn(C)c1` (single isomer, unassigned) [Ex-9.8], the IC50 was 4.9 nM.

Regarding `CCC1(N2CCN(c3cc4cc(NC(=O)C5CC56CCOCC6)ncc4cc3Cl)CC2)COCC1O` (single isomer, unassigned) [Ex-2.22, (R or S)-N-(7-chloro-6-(4-((3R,4R or 3S,4S)-3-ethyl-4-hydroxytetrahydrofuran-3-yl)piperazin-1-yl)isoquinolin-3-yl)-6-oxaspiro[2.5]octane-1-carboxamide], the IC50 is 0.372 nM.

As to `Cc1cc2cnc(NC(=O)C3C4CCOCC43)cc2cc1N1CCN(C2(C)CCOC2)CC1` (single isomer, unassigned) [Ex-10.47, (1S,6R,7R, 1R,6S,7R, or 1R, 6S,7S, or 1S,6S,7S)-N-(7-methyl-6-(4-((R or S)-3-methyltetrahydrofuran-3-yl)piperazin-1-yl)isoquinolin-3-yl)-3-oxabicyclo[4.1.0]heptane-7-carboxamide], the IC50 was 10.2 nM. On the same count and under the same terms, next, `CC1(N2CCN(c3cc4cc(NC(=O)C5CCCOC5)ncc4cc3Cl)CC2)COCC1O` (single isomer, unassigned) [Ex-10.4, (3R or 3S)-N-(7-chloro-6-(4-((3R, 4R or 3S, 4S)-4-hydroxy-3-methyltetrahydrofuran-3-yl)piperazin-1-yl)isoquinolin-3-yl)tetrahydro-2H-pyran-3-carboxamide]: 1.38 nM; `Cc1cc2cnc(NC(=O)C3CC3c3ccccn3)cc2cc1N1CCN(C2(C)CCOC2)CC1` (single isomer, unassigned) [Ex-9.17]: 1.29 nM.

As for `CC1(N2CCN(c3cc4cc(NC(=O)C5CC56CC6(F)F)ncc4cc3Cl)CC2)COCC1O` (single isomer, unassigned) [Ex-2.16, (1R,3R or 1S,3S)-N-(7-chloro-6-(4-((3R,4R or 3S,4S)-4-hydroxy-3-methyltetrahydrofuran-3-yl)piperazin-1-yl)isoquinolin-3-yl)-4,4-difluorospiro[2.2]pentane-1-carboxamide], the IC50 was 0.813 nM. On to `O=C(Nc1cc2cc(N3CCN(C4COCC4O)CC3)c(Cl)cc2cn1)C1CC12CCOCC2` (single isomer, unassigned) [Ex-2.6, (R or S)-N-(7-chloro-6-(4-((3R,4R or 3S,4S)-4-hydroxytetrahydrofuran-3-yl)piperazin-1-yl)isoquinolin-3-yl)-6-oxaspiro[2.5]octane-1-carboxamide], for which the IC50 is 3.09 nM. In the case of `CC1(N2CCN(c3cc4cc(NC(=O)C5CCC5c5ccccn5)ncc4cc3Cl)CC2)COCC1O` (single isomer, unassigned) [Ex-11.5, (1R,2R or 1S,2S)-N-(7-chloro-6-(4-((3R,4R or 3S,4S)-4-hydroxy-3-methyltetrahydrofuran-3-yl)piperazin-1-yl)isoquinolin-3-yl)-2-(pyridin-2-yl)cyclobutane-1-carboxamide], the IC50 was 0.0813 nM. On the same count and under the same terms, in the case of `CC1(C#N)CCN(c2cc3cc(NC(=O)C4CC4c4cncnc4)ncc3cc2Cl)CC1` (single isomer, unassigned) [Ex-5.15] it was 6.17 nM. On the same count and under the same terms, in the case of `N#CC1(F)CCN(c2cc3cc(NC(=O)C4CC4c4cncnc4)ncc3cc2Cl)CC1` (single isomer, unassigned) [Ex-5.19] it was 117 nM; in that of `C[C@H]1CN(c2cc3cc(NC(=O)C4CC45CCOCC5)ncc3cc2Cl)CCN1C1(C)COCC1O` (single isomer, unassigned) [Ex-2.21, (R or S)-N-(7-chloro-6-((S or R)-4-((3R,4R, or 3S,4S)-4-hydroxy-3-methyltetrahydrofuran-3-yl)-3-methylpiperazin-1-yl)isoquinolin-3-yl)-6-oxaspiro[2.5]octane-1-carboxamide], 0.589 nM; in that of `CC1(N2CCN(c3cc4cc(NC(=O)C5CC56CCCOC6)ncc4cc3Cl)CC2)COCC1O` (single isomer, unassigned) [Ex-1.12, (1R,3S, or 1R,3R, or 1S,3S, or 1S,3R)-N-(7-chloro-6-(4-((3R,4R or 3S,4S)-4-hydroxy-3-methyltetrahydrofuran-3-yl)piperazin-1-yl)isoquinolin-3-yl)-5-oxaspiro[2.5]octane-1-carboxamide], 3.72 nM. Still for that read-out and setting: in the case of `Cn1ccc(C2CC2C(=O)Nc2cc3cc(N4CCN(C5(C)COCC5F)CC4)c(Cl)cc3cn2)n1` (single isomer, unassigned) [Ex-10.17, (1R,2R or 1S,2S)-N-[7-chloro-6-[4-((3R,4R or 3S,4S)-4-fluoro-3-methyl-tetrahydrofuran-3-yl)piperazin-1-yl]-3-isoquinolyl]-2-(1-methylpyrazol-3-yl)cyclopropanecarboxamide] it was 2.75 nM; in that of `CCC1C(C(=O)Nc2cc3cc(N4CCN(C5(C)COCC5F)CC4)c(Cl)cc3cn2)C1c1ccccn1` (single isomer, unassigned) [Ex-10.90, (1R,2R,3R, or 1R,2S,3R, or 1S,2R,3S, or 1S,2S,3S)-N-[7-chloro-6-[4-((3R,4R or 3S,4S)-4-fluoro-3-methyl-tetrahydrofuran-3-yl)piperazin-1-yl]-3-isoquinolyl]-2-ethyl-3-(2-pyridyl)cyclopropanecarboxamide], 2.04 nM. Regarding `CC1(C2CCOC2)CC1C(=O)Nc1cc2cc(N3CCN(C4(C)COCC4O)CC3)c(Cl)cc2cn1` (single isomer, unassigned) [Ex-10.85, (1R,2R or 1S,2S, or 1R,2S, or 1S,2R)-N-[7-chloro-6-[4-((3R,4R or 3S,4S)-4-hydroxy-3-methyl-tetrahydrofuran-3-yl)piperazin-1-yl]-3-isoquinolyl]-2-methyl-2-tetrahydrofuran-3-yl-cyclopropanecarboxamide], the IC50 was 0.0813 nM. The same measure, in the same setting: next, `CC1(C)CC2(CCO1)CC2C(=O)Nc1cc2cc(N3CCN(C4(C)COCC4O)CC3)c(Cl)cc2cn1` (single isomer, unassigned) [Ex-7.4]: 0.776 nM; `CC1(N2CCN(c3cc4cc(NC(=O)C5CC5C(F)F)ncc4cc3Cl)CC2)COCC1F` (single isomer, unassigned) [Ex-10.77, (1R,2R or 1S,2S)-N-[7-chloro-6-[4-((3R,4R or 3S,4S)-4-fluoro-3-methyl-tetrahydrofuran-3-yl)piperazin-1-yl]-3-isoquinolyl]-2-(difluoromethyl)cyclopropanecarboxamide]: 0.0813 nM.

For the origin of these results see patent publication US12516039B2, “N-linked isoquinoline amides as LRRK2 inhibitors, pharmaceutical compositions, and uses thereof” (Merck Sharp & Dohme LLC, priority 2020, dated 2026).
